The values below come from patent publication US8318184B2, “MGLU2 agonists” (Eli Lilly and Company, priority 2009, dated 2012).

What is called EC50 is the midpoint of the concentration-response curve. A lower EC50 goes with greater potency.

The target in one assay is T1, human mGlu2 receptor (Homo sapiens, UniProt Q14416).
T1 construct: expressed in transfected cells; co-transfected with rat EAAT1 and Galpha15
Description: Human mGlu2 Agonist FLIPR Assay. The class given is cell-based. Conditions: hmGlu2 FLIPR assay, AV-12 cells, relative EC50. An excerpt: AV-12 cell lines, derived from Syrian Hamster fibroblasts and stably expressing the human mGlu2 receptor and co-transfected with the rat glutamate transporter EAAT 1 (Excitatory Amino Acid Transporter 1) and the Gα15 subunit, are used for these studies. The expression of Gα15 allows Gi-coupled receptors to signal through the phospholipase C pathway, resulting in the ability to measure receptor activation by a fluorometric calcium response assay. […]
Intracellular calcium levels are monitored before and after the addition of compounds using a Fluorometric Imaging Plate Reader (FLIPR, Molecular Devices). […] Results are analyzed using Prism v4.03 (GraphPad Software). […] After taking an initial 5-sec fluorescent read on the FLIPR instrument, a compound of the present invention is added to the cell plate (50 μL per well). […] The compound effect is measured as maximal minus minimal peak heights in relative fluorescent units (RFUs) corrected for basal fluorescence measured in the absence of glutamate. […] Agonist effects are quantified as percent stimulation induced by compound alone relative to the maximal glutamate response. All data are calculated as relative EC50 values using a four-parameter logistic curve fitting program (ActivityBase v5.3.1.22).

For another assay, the system named is ICR(CD-1) mice. Nature of the assay: Reversal of Phencyclidine (PCP)-Induced Hyperlocomotor Activity in Mice. The class given is in vivo, mouse. As to conditions: i.p. The source says: This assay for Reversal of Phencyclidine (PCP)-Induced Hyperlocomotor Activity in Mice is run substantially as the Reversal of Phencyclidine (PCP)-Induced Hyperlocomotor Activity in Rats assay provided above, using mice instead of rats and with the changes noted below.
Motor activity is monitored by placing individual male, ICR(CD-1), (Harlan, Indianapolis, Ind.) mice in transparent, plastic shoe-box cages of the dimensions 45×25×20 cm, with 0.5 cm depth of wood chips as bedding, and plastic lid on top of the cage. Motor monitors (Kinder Scientific) consist of a rectangular rack of 12 photobeams arranged in an 8×4 formation, (or a high density grouping of 22 in a 15×7 pattern) at a height of 2.5 cm. The shoe box cage is placed inside of these racks, with the racks on a 3 foot high tabletop in an isolated room. A compound of the present invention is dosed (intraperitoneal route, non-prodrug) usually within a range of 0.3-30 mg/kg; though higher doses may be used, 30 minutes prior to a 7.5 mg/kg challenge dose of phencyclidine (PCP). On the test day, mice are placed in the test cage and allowed to acclimate for 45 minutes prior to PCP challenge; mice are monitored for an additional 60 minutes following PCP administration.
Power analyses have determined that 7-8 mice per group are needed to have appropriate statistical power for detecting treatment differences (power=0.8).

Another assay has as its system Sprague-Dawley rats. Description: Forced Swim Test in rats. The class given is in vivo, rat. How it is done:
In this assay, mechanisms with purported antidepressant-like activity decrease immobility in a brief inescapable forced swim episode.
The forced-swim test is conducted with both mice (male, NIH-Swiss mice, 20-25 g, Harlan Sprague-Dawley, Indianapolis, Ind.) and rats (male, Sprague-Dawley rats, 250-350 g, Harlan Sprague-Dawley, Indianapolis, Ind.). Mice are placed in clear plastic cylinders (diameter 10 cm; height: 25 cm) filled to 6 cm with 22-25° C. water for six min. The duration of immobility is recorded during the last 4 min of a six-minute trial. Rats are treated similarly, albeit in clear plastic cylinders of larger dimensions (diameter: 18 cm; height: 40 cm) filled with water (22-25° C.) to a depth of 16 cm for 15 min. Additionally, mice receive a single forced swim exposure; rats receive two, 5-min sessions separated by 24 hours (data is recorded only on Day 2). The compound of Example 1 is tested in mice using intraperitoneal dosing (1, 3, or 10 mg/kg), 60 min prior to testing. […] Example 2 is administered 5 min following the first forced swim exposure and 120 min prior to the test session on Day 2. Imipramine is used as a positive control for these studies. Compounds are formulated in a water vehicle, with minimal NaOH being added to Example 1 and Example 2. Compounds are in a clear solution. The amount of time spent immobile (defined as movements only necessary to keep the subject's head above water) is the dependent measure and recorded by an observer blinded to the drug treatment of the subjects. Data are analyzed by post-hoc Dunnett's test with alpha level set at 0.05. The mouse version of the forced swim test is most commonly used. An ED60 value (60% of the amount of immobility relative to vehicle controls) is calculated to estimate potency of the test compounds.

T1 sequence (Q14416 19-872): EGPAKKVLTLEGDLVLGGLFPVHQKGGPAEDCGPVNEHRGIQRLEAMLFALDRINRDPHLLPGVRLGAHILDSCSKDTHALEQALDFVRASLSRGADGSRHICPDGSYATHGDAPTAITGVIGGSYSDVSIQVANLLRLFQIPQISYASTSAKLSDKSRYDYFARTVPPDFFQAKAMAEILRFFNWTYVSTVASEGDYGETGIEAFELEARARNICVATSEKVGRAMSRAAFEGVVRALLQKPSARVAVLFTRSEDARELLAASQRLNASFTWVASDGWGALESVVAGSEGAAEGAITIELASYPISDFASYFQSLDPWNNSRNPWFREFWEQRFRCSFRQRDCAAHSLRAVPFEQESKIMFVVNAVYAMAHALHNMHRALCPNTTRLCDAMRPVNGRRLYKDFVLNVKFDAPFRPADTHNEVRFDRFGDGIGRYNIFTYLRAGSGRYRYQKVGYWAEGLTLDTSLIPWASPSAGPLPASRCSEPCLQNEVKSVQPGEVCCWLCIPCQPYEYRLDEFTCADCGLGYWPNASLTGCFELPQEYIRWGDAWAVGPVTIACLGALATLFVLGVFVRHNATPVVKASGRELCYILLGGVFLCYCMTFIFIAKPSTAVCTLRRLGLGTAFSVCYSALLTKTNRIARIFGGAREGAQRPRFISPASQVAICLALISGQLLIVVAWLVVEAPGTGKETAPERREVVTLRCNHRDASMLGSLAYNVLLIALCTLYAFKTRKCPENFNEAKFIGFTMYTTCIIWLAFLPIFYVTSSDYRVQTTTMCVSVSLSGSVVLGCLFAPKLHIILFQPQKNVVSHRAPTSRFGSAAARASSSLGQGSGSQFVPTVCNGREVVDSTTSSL

Regarding `N[C@@]1(C(=O)O)C[C@@H](Sc2nnc[nH]2)[C@H]2[C@H](C(=O)O)[C@H]21` [Example 1, (1R,2S,4R,5R,6R)-2-Amino-4-(4H-1,2,4-triazol-3-ylsulfanyl)bicyclo[3.1.0]hexane-2,6-dicarboxylic acid], the EC50 on human mGlu2 receptor was found to be 23 nM. Further, the “inhibition of PCP evoked ambulations” value with ICR(CD-1) mice (multiple dose experiment, 10 mg/kg dose) is recorded as 81±5%; with ICR(CD-1) mice (single dose experiment of 10 mg/kg), 78±9%.
For the compound `C[C@H](N)C(=O)N[C@@]1(C(=O)O)C[C@@H](Sc2nnc[nH]2)[C@H]2[C@H](C(=O)O)[C@H]21.Cl` [Example 2, (1R,2S,4R,5R,6R)-2-[[(2S)-2-Aminopropanoyl]amino]-4-(1H-1,2,4-triazol-3-ylsulfanyl)bicyclo[3.1.0]hexane-2,6-dicarboxylic acid hydrochloride], the “maximal effect, immobility as % of vehicle-treated rats” value in the assay on Sprague-Dawley rats (oral dosing) amounted to 68%. Further, in the assay with Sprague-Dawley rats (oral, following dosing with 4.1 and 13.8 mg/kg, F(4,29)=14.72, p<0.0001), the immobility time result is given as “significantly decreased immobility time”.
